Results: patent publication US7709492B2, “Pyrazolo-[4,3-e]-1,2,4-triazolo-[1,5-c]-pyrimidine adenosine A2a receptor antagonists” (Schering Corporation, priority 2004, dated 2010)
pKi: −log10 of the molar value.

Target: T1, Human A2a Adenosine Receptor (Homo sapiens, UniProt P29274)
T1 construct: purchased Receptor Biology, Inc., Beltsville, Md; RB-HA2a
Assay: Human adenosine A2a receptor competition binding assay
Settings: [3H]-SCH 58261 displacement, human A2a membranes
Experimental: Human Adenosine A2a and A1 Receptor Competition Binding Assay Protocol
A2a: Human A2a Adenosine Receptor membranes, Catalog #RB-HA2a, Receptor Biology, Inc., Beltsville, Md. Dilute to 17 μg/100 μl in membrane dilution buffer (see below).
Membrane dilution buffer: Dulbecco's Phosphate Buffered Saline (Gibco/BRL)+10 mM MgCl2.
Compound Dilution Buffer: Dulbecco's Phosphate Buffered Saline (Gibco/BRL)+10 mM MgCl2 supplemented with 1.6 mg/ml methyl cellulose and 16% DMSO. Prepared fresh daily.
A2a: [3H]-SCH 58261, custom synthesis, AmershamPharmacia Biotech, Piscataway, N.J. Stock is prepared at 1 nM in membrane dilution buffer. Final assay concentration is 0.5 nM.
A2a: To determine non-specific binding, add 100 nM CGS 15923 (RBI, Natick, Mass.). Working stock is prepared at 400 nM in compound dilution buffer.
Prepare 1 mM stock solutions of compounds in 100% DMSO. Dilute in compound dilution buffer. Test at 10 concentrations ranging from 3 μM to 30 pM. Prepare working solutions at 4× final concentration in compound dilution buffer.
Perform assays in deep well 96 well plates. Total assay volume is 200 μl. Add 50 μl compound dilution buffer (total ligand binding) or 50 μl CGS 15923 working solution (A2a non-specific binding) or 50 μl, NECA working solution (A1 non-specific binding) or 50 μl of drug working solution. Add 50 μl ligand stock ([3H]-SCH 58261 for A2a, [3H]-DPCPX for A1). […]

T1 sequence (P29274 whole entry): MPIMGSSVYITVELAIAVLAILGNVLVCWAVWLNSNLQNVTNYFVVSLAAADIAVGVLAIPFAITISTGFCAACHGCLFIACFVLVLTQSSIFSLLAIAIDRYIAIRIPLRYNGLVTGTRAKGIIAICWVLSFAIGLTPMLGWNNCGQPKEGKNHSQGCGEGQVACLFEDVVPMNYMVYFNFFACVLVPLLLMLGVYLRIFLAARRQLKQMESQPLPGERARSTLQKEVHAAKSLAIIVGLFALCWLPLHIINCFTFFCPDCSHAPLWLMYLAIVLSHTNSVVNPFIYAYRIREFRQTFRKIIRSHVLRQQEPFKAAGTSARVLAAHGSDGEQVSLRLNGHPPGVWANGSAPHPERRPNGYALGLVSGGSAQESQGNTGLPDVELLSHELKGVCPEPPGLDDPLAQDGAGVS

## Nc1nc2c(cnn2CCN2CCN(c3cc(-c4ncco4)ccc3F)CC2)c2nc(-c3ccccn3)nn12 [Example 12-31]
  pKi: 9.52
